Source: PubChem BioAssay AID720696 (Broad Institute, 2013)

What follows are compounds tested on Clone20 osteoblast Shn3 3'UTR firefly luciferase, 24 h (assay: Shn3 3'UTR reporter inhibitors, dose response, cell-based, luminescence, dry powder (AID 720696)).

Row | SMILES | AC50
1 | CCOC(=O)C1CCN(C(=O)c2ccc(OCC(=O)Nc3cccc(C(F)(F)F)c3)c(OC)c2)CC1 | 1.4 µM
2 | COc1cc2ncnc(N[C@H](C)c3ccccc3)c2cc1OC | 5.13 µM
3 | COc1ccccc1N1CCN(c2ncc(C(=O)N3CCN(c4cccc(Cl)c4)CC3)c3ccccc23)CC1 | 2.54 µM
4 | Cc1ccc2cc(CN(CC3CCCO3)C(=O)NC3CCCCC3)c(=O)[nH]c2c1C (stereo not drawn) | 5.22 µM
5 | CC(C)(C)NC(=O)CSc1nc2ccc(NC(=O)CSc3nnnn3Cc3ccccc3)cc2s1 | 2.14 µM
6 | Nc1nonc1C(=O)NCCNCc1cc(Br)ccc1OCc1ccc(F)cc1 | 2.03 µM
7 | Cc1cc(N2CCCC2=O)cc(C)c1S(=O)(=O)NCCOc1ccc(C(C)(C)C)cc1 | 0.797 µM
8 | CCCOc1ccccc1C1CC(=O)Nc2cc3c(cc21)OCO3 (stereo not drawn) | 2.16 µM
9 | COc1ccc2c(c1)c(CC(=O)Nc1cc(C)ccc1C)c(C)n2C(=O)c1ccc(Cl)cc1 | 3.24 µM
10 | CCOC(=O)c1ccc(NC(=O)Cn2ncc(Cl)c(Cl)c2=O)cc1 | 2.56 µM
11 | CN(C)c1nc(-c2ccccn2)nnc1-c1ccccc1 | 2.62 µM
12 | CCOC(=O)C1(Cc2ccc(Cl)cc2)CCN(C(C)Cc2ccc(O)c(OC)c2)CC1 (stereo not drawn) | 1.62 µM
13 | COc1ccc(NC(=O)c2nc(S(=O)(=O)Cc3cccc(C)c3)ncc2Cl)c(OC)c1 | 3.86 µM
14 | CN(CC(=O)Nc1cccc(S(=O)(=O)N2CCOCC2)c1)CC(=O)Nc1ccc(Cl)c(C(F)(F)F)c1 | 0.877 µM
15 | CN(C)S(=O)(=O)c1cccc(NC(=O)c2cccc(S(=O)(=O)N3CCc4ccccc43)c2)c1 | 2.41 µM
16 | Cc1cc2c(cc(C(=O)N3CCC(C(=O)NC4CCCC4)CC3)n2Cc2c(F)cccc2Cl)o1 | 21.3 µM
17 | CC(=O)Nc1cccc(NC(=O)CSc2ncc(-c3ccc(Cl)cc3)n2Cc2ccco2)c1 | 3.38 µM
18 | CC(=O)N1CCN(C(=O)CCc2cc(C(C)(C)C)c(O)c(C(C)(C)C)c2)CC1 | 4.01 µM
19 | COc1ccc(Nc2nc(N3CCCCC3)c3ccccc3n2)cc1 | 1.1 µM
20 | COc1cc(CN2CCc3ccccc3C2)ccc1O | 2.09 µM
21 | COc1ccc(NS(=O)(=O)c2ccc(C(=O)N3CCCCCC3)cc2)cc1 | 3.7 µM
22 | CN(C(=O)COc1ccccc1C(=O)NCCOc1ccccc1)c1ccccc1 | 1.92 µM
23 | CCCc1nnc(NC(=O)c2nc(S(=O)(=O)Cc3ccc(C)cc3)ncc2Cl)s1 | 3.83 µM
24 | CC(C)[C@H](NC(=O)OC(C)(C)C)c1nnc(S(=O)(=O)Cc2c(F)cccc2Cl)o1 | 17.1 µM
25 | O=C(c1nnsc1S(=O)c1ccc(Cl)cc1)N1CCOCC1 (stereo not drawn) | 5.08 µM
26 | O=c1c2ccccc2nc2n1C(CSCc1ccc(Cl)cc1Cl)CS2 (stereo not drawn) | 2.01 µM
27 | Fc1ccc(-n2nnnc2-c2cnc(-c3cccs3)nc2C(F)(F)F)cc1 | 2.76 µM
28 | O=C1CSc2ccc(C(=O)Nc3cccc(S(=O)(=O)Nc4ccc(Br)cc4)c3)cc2N1 | 1.99 µM
